# US10770169B2, “Method of providing a treatment to a subject based on a dynamic pathway map” (THE REGENTS OF THE UNIVERSITY OF CALIFORNIA, priority 2010, dated 2020)
# “Also recorded” adds a separate entry of the source.
# Experiments:
# [1] = system: panel of 55 breast cancer cell lines; experiment: Cell growth inhibition assay (Cell Titer Glo, 72 h, 9 doses; GI50, TGI, LC50); assay type: cell-based, human; details: value is the negative log10 of mol/L
# [2] = system: luminal, basal, claudin-low and ERBB2AMP breast cancer cell lines; experiment: Associations of clinically relevant subtypes and response (non-parametric ANOVA or t-test on GI50 ranks); assay type: cell-based, human; details: for Subtype specificity: Table 6, most sensitive subtype, FDR p<0.20
# Description: A central premise of this study is that associations between responses and molecular subtypes observed in preclinical cell line analyses will be recapitulated in the clinic in instances where the predictive molecular features in the cell lines are mirrored in human tumors. We established response-subtype associations by using non-parametric ANOVAs to compare […] values across transcriptional and genomics subtypes.
# Differences between GI50s of the groups were compared with a non-parametric ANOVA or t-test, as appropriate, on the ranks. We combined the p-values for the three sets of tests and used false discovery rate (FDR) to correct for multiple testing. For the three-sample test, we performed a post-hoc analysis on the compounds with a significant class effect by comparing each group to all others to determine which group was most sensitive. The p-values for the post-hoc test were FDR-corrected together. In all cases, FDR p<0.20 was deemed significant. […] Analyses were performed in R.
# [3] = AU565 cell line, censored GI50 values
# [4] = BT474 cell line, censored GI50 values
# [5] = BT483 cell line, censored GI50 values
# [6] = HCC38 cell line, censored GI50 values
# [7] = HCC1419 cell line, censored GI50 values
# [8] = HCC1500 cell line, censored GI50 values
# [9] = HCC1937 cell line, censored GI50 values
# [10] = HCC2185 cell line, censored GI50 values
# [11] = MDAMB134VI cell line, censored GI50 values
# [12] = MDAMB175VII cell line, censored GI50 values
# [13] = MDAMB361 cell line, censored GI50 values
# [14] = MDAMB436 cell line, censored GI50 values
# [15] = MDAMB468 cell line, censored GI50 values
# [16] = SUM149PT cell line, censored GI50 values
# [17] = SUM159PT cell line, censored GI50 values
# [18] = SUM1315MO2 cell line, censored GI50 values
# [19] = T47D cell line, censored GI50 values
smiles,measurement,setting,value
COc1cc2ncnc(Nc3cccc(Cl)c3)c2cc1OC [AG1478],GI50,"[1]; 600MPE cell line, censored GI50 values",3.99
same,GI50,[1]; [3],4.57
same,GI50,[1]; [4],6.17
same,GI50,[1]; [5],5.64
same,GI50,"[1]; BT549 cell line, censored GI50 values",4.41
same,GI50,"[1]; CAMA1 cell line, censored GI50 values",4.46
same,GI50,[1]; [6],4.03
same,GI50,"[1]; HCC202 cell line, censored GI50 values",5.75
same,GI50,"[1]; HCC1395 cell line, censored GI50 values",4.57
same,GI50,[1]; [7],5.92
same,GI50,[1]; [8],4.58
same,GI50,"[1]; HCC1806 cell line, censored GI50 values",4.07
same,GI50,[1]; [9],4.88
same,GI50,"[1]; HCC1954 cell line, censored GI50 values",5.64
same,GI50,[1]; [10],4.33
same,GI50,[1]; [11],4.00
same,GI50,"[1]; MDAMB157 cell line, censored GI50 values",4.47
same,GI50,[1]; [12],6.19
same,GI50,[1]; [13],4.71
same,GI50,[1]; [14],3.99
same,GI50,[1]; [15],4.02
same,GI50,"[1]; SKBR3 cell line, censored GI50 values",4.92
same,GI50,[1]; [16],5.74
same,GI50,[1]; [17],4.77
same,GI50,[1]; [18],5.60
same,GI50,[1]; [19],4.74
same,GI50,"[1]; UACC893 cell line, censored GI50 values",5.65
same,GI50,[1]; cell line 600MPE,3.99
same,GI50,[1]; cell line AU565,4.57
same,GI50,[1]; cell line BT474,6.17
same,GI50,[1]; cell line BT483,5.64
same,GI50,[1]; cell line BT549,4.41
same,GI50,[1]; cell line CAMA1,4.46
same,GI50,[1]; cell line HCC38,4.03
same,GI50,[1]; cell line HCC70,3.94
same,GI50,[1]; cell line HCC202,5.75
same,GI50,[1]; cell line HCC1143,3.78
same,GI50,[1]; cell line HCC1187,3.78
same,GI50,[1]; cell line HCC1395,4.57
same,GI50,[1]; cell line HCC1419,5.92
same,GI50,[1]; cell line HCC1428,3.78
same,GI50,[1]; cell line HCC1500,4.58
same,GI50,[1]; cell line HCC1806,4.07
same,GI50,[1]; cell line HCC1937,4.88
same,GI50,[1]; cell line HCC1954,5.64
same,GI50,[1]; cell line HCC2185,4.33
same,GI50,[1]; cell line LY2,3.78
same,GI50,[1]; cell line MDAMB134V,4.00
same,GI50,[1]; cell line MDAMB157,4.47
same,GI50,[1]; cell line MDAMB175V,6.19
same,GI50,[1]; cell line MDAMB361,4.71
same,GI50,[1]; cell line MDAMB415,3.78
same,GI50,[1]; cell line MDAMB436,3.99
same,GI50,[1]; cell line MDAMB453,3.78
same,GI50,[1]; cell line MDAMB468,4.02
same,GI50,[1]; cell line SKBR3,4.92
same,GI50,[1]; cell line SUM52PE,3.78
same,GI50,[1]; cell line SUM149PT,5.74
same,GI50,[1]; cell line SUM159PT,4.77
same,GI50,[1]; cell line SUM185PE,3.78
same,GI50,[1]; cell line SUM1315MO,5.60
same,GI50,[1]; cell line T47D,4.74
same,GI50,[1]; cell line UACC893,5.65
same,GI50,[1]; cell line ZR75B,3.78
same,GI50,[1]; cell line ZR751,3.78
same,association of response with ERBB2 amplification,[2],positively associated with ERBB2 amplification
same,Subtype specificity,[2],ERBB2AMP
Cc1cc(Nc2cc(N3CCN(C)CC3)nc(Sc3ccc(NC(=O)C4CC4)cc3)n2)n[nH]1 [VX-680],GI50,[1]; [3],5.66
same,GI50,"[1]; BT20 cell line, censored GI50 values",4.72
same,GI50,[1]; [4],4.54
same,GI50,[1]; [5],5.44
same,GI50,[1]; [6],6.94
same,GI50,"[1]; HCC70 cell line, censored GI50 values",5.35
same,GI50,"[1]; HCC1143 cell line, censored GI50 values",5.98
same,GI50,"[1]; HCC1187 cell line, censored GI50 values",6.93
same,GI50,[1]; [7],4.81
same,GI50,"[1]; HCC1428 cell line, censored GI50 values",5.10
same,GI50,[1]; [8],4.56
same,GI50,[1]; [9],5.10
same,GI50,[1]; [10],6.46
same,GI50,"[1]; HCC3153 cell line, censored GI50 values",4.76
same,GI50,"[1]; MCF7 cell line, censored GI50 values",5.08
same,GI50,[1]; [11],6.11
same,GI50,[1]; [12],4.61
same,GI50,[1]; [13],5.63
same,GI50,"[1]; MDAMB415 cell line, censored GI50 values",4.86
same,GI50,[1]; [14],6.19
same,GI50,"[1]; MDAMB453 cell line, censored GI50 values",5.03
same,GI50,[1]; [15],6.95
same,GI50,"[1]; SUM52PE cell line, censored GI50 values",6.41
same,GI50,[1]; [16],5.07
same,GI50,[1]; [17],6.37
same,GI50,"[1]; SUM185PE cell line, censored GI50 values",5.62
same,GI50,[1]; [18],5.65
same,GI50,[1]; [19],5.03
same,GI50,"[1]; ZR75B cell line, censored GI50 values",6.79
same,GI50,"[1]; ZR751 cell line, censored GI50 values",5.27
same,GI50,[1]; cell line AU565,5.66
same,GI50,[1]; cell line BT20,4.72
same,GI50,[1]; cell line BT474,4.54
same,GI50,[1]; cell line BT483,5.44
same,GI50,[1]; cell line CAMA1,4.58
same,GI50,[1]; cell line HCC38,6.94
same,GI50,[1]; cell line HCC70,5.35
same,GI50,[1]; cell line HCC1143,5.98
same,GI50,[1]; cell line HCC1187,6.93
same,GI50,[1]; cell line HCC1419,4.81
same,GI50,[1]; cell line HCC1428,5.10
same,GI50,[1]; cell line HCC1500,4.56
same,GI50,[1]; cell line HCC1937,5.10
same,GI50,[1]; cell line HCC1954,4.48
same,GI50,[1]; cell line HCC2185,6.46
same,GI50,[1]; cell line HCC3153,4.76
same,GI50,[1]; cell line MCF7,5.08
same,GI50,[1]; cell line MDAMB134V,6.11
same,GI50,[1]; cell line MDAMB175V,4.61
same,GI50,[1]; cell line MDAMB361,5.63
same,GI50,[1]; cell line MDAMB415,4.86
same,GI50,[1]; cell line MDAMB436,6.19
same,GI50,[1]; cell line MDAMB453,5.03
same,GI50,[1]; cell line MDAMB468,6.95
same,GI50,[1]; cell line SKBR3,4.48
same,GI50,[1]; cell line SUM52PE,6.41
same,GI50,[1]; cell line SUM149PT,5.07
same,GI50,[1]; cell line SUM159PT,6.37
same,GI50,[1]; cell line SUM185PE,5.62
same,GI50,[1]; cell line SUM1315MO,5.65
same,GI50,[1]; cell line T47D,5.03
same,GI50,[1]; cell line UACC812,4.50
same,GI50,[1]; cell line ZR75B,6.79
same,GI50,[1]; cell line ZR751,5.27
same,association of response with ERBB2 amplification,[2],negatively associated with ERBB2 amplification
same,subtype-specific response (sensitivity by transcriptional subtype),[2]; GI50 across subtypes,ERBB2^AMP cell lines were resistant; also recorded: ERBB2AMP cell lines are resistant
same,Subtype specificity,[2],not ERBB2AMP
